Source: US10844044B2 (Vanderbilt University, priority 2018, dated 2020)
Like-named read-outs stand apart in the source and are kept apart here.

Columns and labels:
[1] = system: MV4:11 human cancer cell lines; experiment: Anti-proliferative activity, CellTiter-Glo viability assay, 7 day protocol; format: cell-based; conditions: Homo sapiens, MV4-11, 168 h, MV4:11 cells, 7 day incubation, read-out: GI50 on cellular proliferation of MV4:11 human cancer cell lines
Procedure, shortened: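 Luminescent CellTiter-Glo readout after 7-day compound exposure of MV4:11 cells plated at 3600 cells/ml (final DMSO 0.1%). GI50 derived from three biological × three technical replicates, reported as mean ± S.E.M.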

[2] = target: WDR5 (Homo sapiens (Human), UniProt P61964); experiment: TR-FRET binding assay (displacement of 10mer-Thr-FAM probe from WDR5); conditions: read-out: Ki for Inhibition of WDR5 by TR-FRET assay
[3] = TR-FRET, 10mer-Thr-FAM probe, WDR5-His tag 2 nM, pH 7.0

Compound | GI50 [1] | Ki [2, 3] | Ki [2]
Cc1cc([C@@H](NC(=O)c2cc(Cn3ccn(C4CC4)c3=N)cc(-c3ccc(F)cc3C(F)F)c2)C2CC2)ccc1F [Example 158, (S)—N-(Cyclopropyl(4-fluoro-3-methylphenyl)methyl)-5-((3-cyclopropyl-2-imino-2,3-dihydro-1H-imidazol-1-yl)methyl)-2′-(difluoromethyl)-4′-fluoro-[1,1′-biphenyl]-3-carboxamide] | 170 nM | < 0.1 nM | 
CCOc1c(C(=O)N[C@H](c2ccc(F)c(C)c2)C2CC2)cc(Cn2ccn(C)c2=N)cc1-c1cn(C)nc1C(F)(F)F [Example 210, (S)—N-(Cyclopropyl(4-fluoro-3-methylphenyl)methyl)-2-ethoxy-5-((2-iminio-3-methyl-2,3-dihydro-1H-imidazol-1-yl)methyl)-3-(1-methyl-3-(trifluoromethyl)-1H-pyrazol-4-yl)benzamide] | < 100 nM | < 0.1 nM | 
COc1cc(OC)cc(C(NC(=O)c2cc(Cn3ccn(C)c3=N)cc(-c3ncccc3C(F)(F)F)c2)C2CC2)c1 (stereo not drawn) [Example 61, N-(Cyclopropyl(3,5-dimethoxyphenyl)methyl)-3-((2-imino-3-methyl-2,3-dihydro-1H-imidazol-1-yl)methyl)-5-(3-(trifluoromethyl)pyridin-2-yl)benzamide] | 4200 nM | 2.8 nM | 
CCn1cc(-c2cc(Cn3ccoc3=N)cc(C(=O)N[C@H](c3ccc(Cl)c(Cl)c3)C3CC3)c2)c(C(F)(F)F)n1 [Example 280, (S)—N-(Cyclopropyl(3,4-dichlorophenyl)methyl)-3-(1-ethyl-3-(trifluoromethyl)-1H-pyrazol-4-yl)-5-((2-iminooxazol-3(2H)-yl)methyl)benzamide] | < 100 nM | < 0.1 nM | 
Cc1nc(F)ccc1-c1cc(Cn2ccn(C)c2=N)cc(C(=O)NCc2ccc(Cl)c(Cl)c2)c1 [Example 1, N-(3,4-Dichlorobenzyl)-3-(6-fluoro-2-methylpyridin-3-yl)-5-((2-imino-3-methyl-2,3-dihydro-1H-imidazol-1-yl)methyl)benzamide] | 300 nM | < 0.1 nM | 
Cc1cc([C@@H](NC(=O)c2cc(Cn3ccn(C)c3=N)cc(C3CCC3)c2)C2CC2)ccc1F [Example 166, (S)-3-Cyclobutyl-N-(cyclopropyl(4-fluoro-3-methylphenyl)methyl)-5-((2-imino-3-methyl-2,3-dihydro-1H-imidazol-1-yl)methyl)benzamide] | 360 nM | < 0.1 nM | 
Cc1cc(CNC(=O)c2cc(Cn3ccn(C)c3=N)cc(-c3c(C)ccc4[nH]ncc34)c2)ccc1Cl [Example 33, N-(4-Chloro-3-methylbenzyl)-3-((2-imino-3-methyl-2,3-dihydro-1H-imidazol-1-yl)methyl)-5-(5-methyl-1H-indazol-4-yl)benzamide] | 4900 nM | 0.99 nM | 
Cc1cn(Cc2cc(C(=O)N[C@H](c3ccc(F)c(C)c3)C3CC3)cc(-c3cccnc3C(F)(F)F)c2)c(=N)o1 [Example 250, (S)—N-(Cyclopropyl(4-fluoro-3-methylphenyl)methyl)-3-((2-imino-5-methyloxazol-3(2H)-yl)methyl)-5-(2-(trifluoromethyl)pyridin-3-yl)benzamide] | 570 nM | 0.4 nM | 
CCOC(=O)/N=c1\n(C)ccn1Cc1cc(C(=O)NCc2ccc(Cl)c(Cl)c2)cc(-c2ccc(F)nc2C)c1 [Example 122, Ethyl (1-(3-((3,4-dichlorobenzyl)carbamoyl)-5-(6-fluoro-2-methylpyridin-3-yl)benzyl)-3-methyl-1,3-dihydro-2H-imidazol-2-ylidene)carbamate] | 4200 nM |  | > 33 nM
Cn1cc(-c2cc(CN3CCOC3=N)cc(C(=O)N[C@H](c3ccc(Cl)c(Cl)c3)C3CC3)c2)c(C(F)(F)F)n1 [Example 269, (S)—V—N-(Cyclopropyl(3,4-dichlorophenyl)methyl)-3-((2-iminooxazolidin-3-yl)methyl)-5-(1-methyl-3-(trifluoromethyl)-1H-pyrazol-4-yl)benzamide] | < 100 nM | < 0.1 nM | 
Cc1cc([C@@H](NC(=O)c2cc(Cn3ccn(C)c3=N)cc(-c3ccc(F)cc3C(F)F)c2)C2CC2)ccc1F [Example 154, (S)—N-(Cyclopropyl(4-fluoro-3-methylphenyl)methyl)-2′-(difluoromethyl)-4′-fluoro-5-((2-imino-3-methyl-2,3-dihydro-1H-imidazol-1-yl)methyl)-[1,1′-biphenyl]-3-carboxamide] | 120 nM | < 0.1 nM | 
Cc1cc([C@@H](NC(=O)c2cc(CN3CCCC3=N)cc(-c3ccc(F)cc3C(F)(F)F)c2)C2CC2)ccc1F [Example 335, (S)—N-(Cyclopropyl(4-fluoro-3-methylphenyl)methyl)-4′-fluoro-5-((2-iminopyrrolidin-1-yl)methyl)-2′-(trifluoromethyl)-[1,1′-biphenyl]-3-carboxamide] | < 100 nM | < 0.1 nM | 
Cc1cc([C@@H](NC(=O)c2cc(CN3CCN(C)C3=N)cc(-c3cn(C)nc3C(F)(F)F)c2)C2CC2)ccc1F [Example 203, (S)—N-(cyclopropyl(4-fluoro-3-methylphenyl)methyl)-3-((2-imino-3-methylimidazolidin-1-yl)methyl)-5-(1-methyl-3-(trifluoromethyl)-1H-pyrazol-4-yl)benzamide] | < 100 nM |  | < 0.1 nM
COc1cc(OC)cc(C(NC(=O)c2cc(Cn3ccoc3=N)cc(-c3ncccc3C(F)(F)F)c2)C2CC2)c1 (stereo not drawn) [Example 235, N-(Cyclopropyl(3,5-dimethoxyphenyl)methyl)-3-((2-iminooxazol-3(2H)-yl)methyl)-5-(3-(trifluoromethyl)pyridin-2-yl)benzamide] | 3100 nM | 3.5 nM | 
COc1cc([C@@H](NC(=O)c2cc(Cn3ccn(C)c3=N)cc(-c3cn(C)nc3C(F)(F)F)c2)C2CC2)ncc1F [Example 221, (S)—N-(Cyclopropyl(5-fluoro-4-methoxypyridin-2-yl)methyl)-3-((2-imino-3-methyl-2,3-dihydro-1-imidazol-1-yl)methyl)-5-(1-methyl-3-(trifluoromethyl)-1H-pyrazol-4-yl)benzamide] | < 100 nM | < 0.1 nM | 
Cc1ccn(Cc2cc(C(=O)N[C@H](c3ccc(F)c(C)c3)C3CC3)cc(-c3cccnc3C(F)(F)F)c2)c(=N)c1 [Example 344, (S)—N-(Cyclopropyl(4-fluoro-3-methylphenyl)methyl)-3-((2-imino-4-methylpyridin-1(2H)-yl)methyl)-5-(2-(trifluoromethyl)pyridin-3-yl)benzamide] | 680 nM |  | 0.48 nM
Cc1cc([C@@H](NC(=O)c2cc(Cn3ccsc3=N)cc(-c3cn(C(C)C)nc3C(F)(F)F)c2)C2CC2)ccc1F [Example 322, (S)—N-(Cyclopropyl(4-fluoro-3-methylphenyl)methyl)-3-((2-iminothiazol-3(2H)-yl)methyl)-5-(1-isopropyl-3-(trifluoromethyl)-1H-pyrazol-4-yl)benzamide] | 150 nM |  | < 0.1 nM
COc1cc(CNC(=O)c2cc(Cn3ccn(C)c3=N)nc(-c3ccc(F)cc3C)c2)cc(OC)c1 [Example 365, N-(3,5-Dimethoxybenzyl)-2-(4-fluoro-2-methylphenyl)-6-((2-imino-3-methyl-2,3-dihydro-1H-imidazol-1-yl)methyl)isonicotinamide] | 6000 nM | 0.55 nM | 
N=C1CCCN1Cc1cc(C(=O)N[C@H](c2ccc(F)c(Cl)c2)C2CC2)cc(-c2cccnc2C(F)(F)F)c1 [Example 340, (S)—N-((3-Chloro-4-fluorophenyl)(cyclopropyl)methyl)-3-((2-iminopyrrolidin-1-yl)methyl)-5-(2-(trifluoromethyl)pyridin-3-yl)benzamide] | < 100 nM | < 0.1 nM | 
Cc1cc([C@@H](NC(=O)c2cc(CN3CCCC3=N)cc(-c3cccnc3C(F)(F)F)c2)C2CC2)ccc1F [Example 334, (S)—N-(Cyclopropyl(4-fluoro-3-methylphenyl)methyl)-3-((2-iminopyrrolidin-1-yl)methyl)-5-(2-(trifluoromethyl)pyridin-3-yl)benzamide] | < 100 nM | < 0.1 nM | 
Cc1ccnc([C@@H](NC(=O)c2cc(Cn3ccn(C)c3=N)cc(-c3ccc(F)cc3C)c2)C2CC2)c1 [Example 91, (S)—N-(Cyclopropyl(4-methylpyridin-2-yl)methyl)-4′-fluoro-5-((2-imino-3-methyl-2,3-dihydro-1H-imidazol-1-yl)methyl)-2′-methyl-[1,1′-biphenyl]-3-carboxamide] | 210 nM | < 0.1 nM | 
Cc1cc([C@@H](NC(=O)c2cc(Cn3ccn(C)c3=N)cc(-c3cccnc3C(F)(F)F)c2)C2CC2)ccc1F [Example 60, (S)—N-(cyclopropyl(4-fluoro-3-methylphenyl)methyl)-3-((2-imino-3-methyl-2,3-dihydro-1H-imidazol-1-yl)methyl)-5-(2-(trifluoromethyl)pyridin-3-yl)benzamide] | < 100 nM | < 0.1 nM | 
Cc1cc([C@@H](NC(=O)c2cc(Cn3ccn(C)c3=N)cc(N3CCOC[C@H]3C)c2)C2CC2)ccc1F [Example 227, N—((S)-cyclopropyl(4-fluoro-3-methylphenyl)methyl)-3-((2-imino-3-methyl-2,3-dihydro-1H-imidazol-1-yl)methyl)-5-((R)-3-methylmorpholino)benzamide] | 940 nM |  | 2.1 nM
Cc1cc([C@@H](NC(=O)c2cc(CN3CCOC3=N)cc(-c3cn(C)nc3C(F)(F)F)n2)C2CC2)ccc1F [Example 361, (S)—N-(Cyclopropyl(4-fluoro-3-methylphenyl)methyl)-4-((2-iminooxazolidin-3-yl)methyl)-6-(1-methyl-3-(trifluoromethyl)-1H-pyrazol-4-yl)picolinamide] | 940 nM | 0.77 nM | 
